We go through 14 compounds from patent US20170137419A1, “DERIVATIVES OF 2H-PYRAZOLO[4,3-C]QUINOLIN-3(5H)-ONE AND USE THEREOF” (UNIVERSITE DU DROIT ET DE LA SANTE LILLE 2, priority 2014, published 2017).

Read-outs that look alike come from different tables or passages of the source.

Data set [1] has as its target T1, hCB2 (Homo sapiens, UniProt P34972). Briefly: Binding affinity hCB2, [3H]-CP-55,940 displacement. On the procedure: (§1) Measurement of Affinity. The binding studies were carried out in accordance with the protocols described by El Bakali et al. (El Bakali, J.; Muccioli, G. G.; Renault, N.; Pradal, D.; Body-Malapel, M.; Djouina, M.; Hamtiaux, L.; Andrzejak, V.; Desreumaux, P.; Chavatte, P.; Lambert, D. M.; Millet, R. 4-Oxo-1,4-Dihydropyridines as Selective CB2 Cannabinoid Receptor Ligands: Structural Insights into the Design of a Novel Inverse Agonist Series. J. Med. Chem. 2010, 53, 7918-7931) but applying a small modification. Briefly, the [3H]-CP-55,940 (0.5 nM) chosen as a radioligand for the CB1 and CB2 human receptors is added to 6 μg of membranes resuspended in 550 μl (final volume) of buffer (20 mM Hepes, 5 mM MgCl2, 1 mM EDTA, 0.3% bovine serum albumin, pH 7.4). After 1 hour at 30° C., incubation is stopped and the solution is quickly filtered on Harvester, through the “Unifilter 96 (PerkinElmer)” filter previously saturated with bonding buffer (20 mM Hepes, 5 mM MgCl2, 1 mM EDTA, 0.3% bovine serum albumin, pH 7.4), and then washed 20 times with iced binding buffer without serum albumin. The radioactivity of the filters was measured using the “TopCount NXT Microplate Scintillation Counter (PerkinElmer)” after addition of 60 μl of “MicroScint 40 (PerkinElmer)” scintillation liquid. The experiments were carried out in triplicate. The non-specific binding was determined in the presence of 5 μM (R)-(+)-WIN 55,212-2 (Sigma).
(§2) Analysis of the Data. The values of Ki and EC50 were determined by non-linear regression carried out by the “GraphPad Prism 5.0” program (GraphPad Software, San Diego). The statistical analysis of the results of the [^35S]-GTPγS dosing was carried out by means of the “Student” test.

Data set [2] has as its target T1, hCB2. Briefly: [35S]-GTPγS functional activity (hCB2). It is filed as biochemical. The procedure:
Dosing of [^355]-GTPγS. The studies were carried out at 30° C. in tubes containing 10 μg of protein in 0.5 ml (final volume) of buffer (20 mM Hepes, 10 mM MgCl2, 100 mM NaCl, 0.1% bovine serum albumin, pH 7.4) supplemented with 30 μm of GDP. The dosing was initiated by the addition of [^35S]-GTPγS (0.1 nM, final concentration). After 1 hour at 30° C., the incubation was stopped and the solution was quickly filtered on the “Unifilter-96 GF/B” filter and washed 20 times with iced bonding buffer. The radioactivity on the filters was counted as mentioned above. The non-specific binding was measured in the presence of 100 μm of Gpp(NH)p. The results were expressed in EC50 (nM) and Emax (%).
as §2

Data set [3] deals with colitis caused by TNBS. Briefly: Model of colitis caused by TNBS in mice. Type of data set: in vivo, C57B16 male mice. On the procedure:
C57B16 male mice (n=10 per group) have free access to food and water. To cause colitis, the mice are anaesthetised for 90-120 minutes by subcutaneous administration of zylasine-ketamine (50 mg/kg) diluted in physiological serum, then receive an intrarectal administration of TNBS (40 μl, 150 mg/kg) diluted in a 1:1 mixture of 0.9% NaCl and 100% ethanol. The novel CB2 agonists are diluted in 0.5% carboxymethyl cellulose (Sigma-Aldrich, Saint Quentin Fallavier, France) for a dose administered by gavage of 0.1, 1 and 10 mg/kg body weight/day. JWH133, a known CB2 agonist (Kimball E S, Schneider C R, Wallace N H, Hornby P J. Agonists of cannabinoid receptor 1 and 2 inhibit experimental colitis induced by oil of mustard and by dextran sulfate soldium. Am. J. Physiol. Gastrointest. Liver Physiol., 2006, 291, G364-71.), is administered intraperitoneally at a dose of 0.1 mg/kg body weight/day. The animals are euthanised 5 days after the administration of TNBS. The intensity of the colitis at macroscopic and histological levels is assessed in each colon blind by 2 investigators. The scale of the macroscopic scores of the lesions ranges from 0 to 10 according to characteristics reflecting inflammation, such as hyperaemia, thickening of the intestinal wall and the extent of ulcerations. A localised colon biopsy precisely 2 cm above the anal channel is used for histological analysis following a May-Grunwald Giemsa colouring. The histological score varies between 0 and 6 and takes into account the degree of inflammatory infiltrate, the presence of erosion, ulcerations and necrosis of the mucosa, and the level of extension of the lesions in depth and on the surface reached. Two other colon biopsies are frozen and used to analyse the levels of mRNA of inflammatory cytokines by PCR in real time. The total mRNAs of the colon are extracted using the Nucleospin RNAII kit (Macherey Nagel, Hoerdt, France) and then retrotranscripts using the High-Capacity cDNA Reverse Transcription Kit (Applied Biosystems), Foster City, USA). The real-time PCR is carried out with SYBR Green (Applied Biosystems, Foster City, USA). The specific primers for TNF-alpha (TNF-alpha F and TNF-alpha R), IL-1 beta (IL1-beta F and IL1-beta R) and POLR2A (POLR2A F and POLR2A R) as reference gene were chosen using the Primer Express 2 software (Applied Biosystems, Foster City, USA). For the graphical representation of the quantitative PCR data, the values of Ct obtained for the target genes are compared with those of the reference gene, using the ΔΔCt method, that is to say: ΔΔCt=(Ct of the target gene−Ct of the reference gene) treated mouse−(Ct of the target gene−Ct of the reference gene) non-treated mouse, and the final data are derived from 2-ΔΔCt.
Compound 26 was evaluated in mice in a model of colitis caused by TNBS in accordance with a described protocol (Desreumaux, P.; Dubuquoy, L.; Nutten, S.; Peuchmaur, M.; Englaro, W.; Schoonjans, K.; Derijard, B.; Desvergne, B.; Wahli, W.; Chambon, P.; Leibowitz, M. D.; Colombel, J. F.; Auwerx, J. Attenuation of Colon Inflammation Through Activators of the Retinoid X Receptor (RXR)/Peroxisome Proliferator-Activated Receptor Gamma (PPARgamma) Heterodimer. A Basis for New Therapeutic Strtegies. J. Exp. Med. 2001, 193, 827-838). Thus compound 26 was administered orally in carboxymethyl cellulose (CMC) each day at a dose of 0.1, 1 and 10 mg/kg for seven days, and two days before the induction of colitis. A control with an administration of CMC alone was effected.

In data set [4] the target is hCB1 (Homo sapiens, UniProt P21554). Briefly: Binding affinity hCB1, [3H]-CP-55,940 displacement. The procedure: as §1, §2
hCB1, sequence (P21554 whole entry): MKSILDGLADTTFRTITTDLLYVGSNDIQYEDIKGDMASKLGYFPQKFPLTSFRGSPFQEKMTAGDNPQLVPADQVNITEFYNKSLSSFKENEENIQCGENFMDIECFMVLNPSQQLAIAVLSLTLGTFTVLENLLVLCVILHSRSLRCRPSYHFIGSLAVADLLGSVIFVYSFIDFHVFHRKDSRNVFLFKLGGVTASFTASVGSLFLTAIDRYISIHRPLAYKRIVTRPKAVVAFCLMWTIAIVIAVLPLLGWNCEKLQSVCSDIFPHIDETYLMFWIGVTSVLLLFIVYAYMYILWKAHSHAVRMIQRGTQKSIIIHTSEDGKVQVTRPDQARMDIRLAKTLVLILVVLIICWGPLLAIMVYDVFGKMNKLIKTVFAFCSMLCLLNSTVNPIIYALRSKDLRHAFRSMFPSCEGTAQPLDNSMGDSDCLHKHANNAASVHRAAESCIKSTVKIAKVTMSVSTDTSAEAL
The mark [5] stands for this setting: Table 2, radioligand [3H]-CP-55,940 0.5 nM, read-out: Binding affinity hCB2 Ki.
The mark [6] stands for this setting: Table 3, radioligand [3H]-CP-55,940 0.5 nM, read-out: Binding affinity hCB1 Ki.
Where [7] appears, read: Table 2, radioligand [3H]-CP-55,940 0.5 nM, read-out: Binding affinity hCB1 Ki.

T1 sequence (P34972 whole entry): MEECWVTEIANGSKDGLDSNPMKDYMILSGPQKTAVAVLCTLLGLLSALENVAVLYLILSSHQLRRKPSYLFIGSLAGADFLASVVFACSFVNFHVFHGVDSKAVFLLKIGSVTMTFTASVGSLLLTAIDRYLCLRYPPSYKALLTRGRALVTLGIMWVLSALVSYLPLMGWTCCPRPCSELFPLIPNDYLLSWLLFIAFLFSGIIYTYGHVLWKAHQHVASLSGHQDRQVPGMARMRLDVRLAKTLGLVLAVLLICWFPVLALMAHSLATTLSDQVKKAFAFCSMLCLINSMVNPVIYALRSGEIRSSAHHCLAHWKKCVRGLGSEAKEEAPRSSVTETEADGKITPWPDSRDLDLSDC

Regarding `CCCCCn1cc2c(=O)n(CC34CC5CC(CC(C5)C3)C4)nc-2c2ccccc21` [Compound 26, 2-(1-Adamantylmethyl)-5-pentyl-2H-pyrazolo[4,3-c]quinolin-3(5H)-one], the Ki in data set [1] (setting [5]) worked out at 0.00039 ± 3e-05 µM. The compound also returned a concentration giving a half-maximal response (EC50) in data set [2] of 0.064 ± 0.01 µM. The same compound yielded an Emax in data set [2] of 163 ± 4%. The “Overall efficacy against colitis” value in data set [3] (oral administration) is on record as “effective in mice against colitis in a dose-dependent manner”. Also, the “Loss of body weight” value in data set [3] (oral daily treatment 0.1, 1 and 10 mg/kg, five days after TNBS) is given as “attenuates in a dose-dependent manner the loss of weight”. The Macroscopic score in data set [3] (oral, 10 mg/kg, scale 0 to 10, printed as 1.7 versus 1.9) is 1.7; in data set [3] (oral, 0.1, 1 and 10 mg/kg, colon after euthanasia (FIG. 2A)) it was “reduces the macroscopic scores (FIG. 2A) in a dose-dependent manner”. Moreover, the “Mortality / survival rate” value in data set [3] (oral, 0.1, 1 and 10 mg/kg daily, versus untreated mice (FIG. 1A)) is recorded as “reduction in mortality”. In addition, in data set [3] (oral, histological score scale 0 to 6 (FIG. 2B)), the “Attenuation of histological scores” value came out at 65%.

`CCCCCCn1nc2c3ccccc3n(CCCCC)cc-2c1=O` [Compound 22, 2-Hexyl-5-pentyl-2H-pyrazolo[4,3-c]quinolin-3(5H)-one]: the Ki in data set [1] (setting [5]) is 0.0077 ± 0.0003 µM; in data set [4], > 3 µM.

As for `O=c1c2cn(CCCC(F)(F)F)c3ccccc3c-2nn1CC1CCCCC1` [Compound 43, 2-(Cyclohexylmethyl)-5-(4,4,4-trifluorobutyl)-2H-pyrazolo[4,3-c]quinolin-3(5H)-one], the melting point came to 224 °C. This compound also came in with a Ki in data set [1] of 0.00617 µM. Besides, the Ki in data set [4] (setting [6]) stood at 1.68 µM.

As for `CCCCCn1cc2c(=O)n(CC3CCCCC3)nc-2c2ccccc21` [Compound 24, 2-(Cyclohexylmethyl)-5-pentyl-2H-pyrazolo[4,3-c]quinolin-3(5H)-one], the inhibition constant Ki in data set [1] (setting [5]) was found to be 0.00062 ± 3e-05 µM. Further, in data set [4], the Ki was > 3 µM. In data set [2], the EC50 is 0.0143 ± 0.004 µM and the Emax amounted to 149 ± 4%.

As for `CCCCCn1nc2c3ccccc3n(CCCCC)cc-2c1=O` [Compound 21, 2,5-Dipentyl-2H-pyrazolo[4,3-c]quinolin-3(5H)-one], the Ki in data set [1] (setting [5]) was 0.0043 ± 0.0003 µM; in data set [4] it was > 3 µM.

With `CCCCCn1cc2c(=O)n(CCC34CC5CC(CC(C5)C3)C4)nc-2c2ccccc21` [Compound 27, 2-(1-Adamantylethyl)-5-pentyl-2H-pyrazolo[4,3-c]quinolin-3 (5H)-one], the Ki in data set [1] (setting [5]) was determined as 0.0261 ± 0.0038 µM.

For `CCCCCn1cc2c(=O)n(CC3CC3)nc-2c2ccccc21` [Compound 23, 2-(Cyclopropylmethyl)-5-pentyl-2H-pyrazolo[4,3-c]quinolin-3(5H)-one], the values for the Ki in data set [1] (setting [5]) and in data set [4] (setting [7]) were 0.0104 ± 0.0031 µM and > 3 µM, respectively.

Turning to `CCCCCn1cc2c(=O)n(C3CCCCC3)nc-2c2ccccc21` [Compound 16, 2-Cyclohexyl-5-pentyl-2H-pyrazolo[4,3-c]quinolin-3 (5H)-one], in data set [1] (setting [5]), the inhibition constant Ki is 0.0188 ± 0.0033 µM. The inhibitory constant (Ki) in data set [4] was > 3 µM. In addition, in data set [2], it took 0.204 ± 0.041 µM to reach a half-maximal effect (EC50) and the Emax worked out at 160 ± 3%.

As to `CCCCCn1cc2c(=O)n(Cc3ccccc3)nc-2c2ccccc21` [Compound 19, 2-Benzyl-5-pentyl-2H-pyrazolo[4,3-c]quinolin-3(5H)-one], the Ki in data set [1] and in data set [4] was > 3 µM throughout.

Consider `O=c1c2cn(CC3CCOCC3)c3ccccc3c-2nn1CC1CCCCC1` [Compound 42, 2-(Cyclohexylmethyl)-5-(tetrahydro-2H-4-pyranylmethyl)-pyrazolo[4,3-c]quinolin-3(5H)-one], for which the melting point is > 250 °C. In data set [1], this compound registered an inhibition constant (Ki) of 0.00532 µM. This compound came in with a Ki in data set [4] of 0.52 µM.

In the case of `CCCCCCn1cc2c(=O)n(CC3CCCCC3)nc-2c2ccccc21` [Compound 41, 2-(Cyclohexylmethyl)-5-hexyl-2H-pyrazolo[4,3-c]quinolin-3(5H)-one], the melting point was 193 °C. The compound further gave a Ki in data set [1] of 0.0311 µM. In data set [4] (setting [6]), the Ki is > 10 µM.

As to `CCCCCn1cc2c(=O)[nH]nc-2c2ccccc21` [Compound 8, 5-Pentyl-2H-pyrazolo[4,3-c]quinolin-3(5H)-one], the inhibitory constant (Ki) in data set [1] (setting [5]) and in data set [4] (setting [7]) was > 3 µM throughout.

`CCCCn1cc2c(=O)n(CC3CCCCC3)nc-2c2ccccc21` [Compound 40, 2-(Cyclohexylmethyl)-5-butyl-2H-pyrazolo[4,3-c]quinolin-3(5H)-one] showed a melting point of 216 °C. This compound also had a Ki in data set [1] of 0.0148 µM. The Ki in data set [4] (setting [6]) is > 10 µM.

As to `CCCCCn1cc2c(=O)n(CCC3CCCCC3)nc-2c2ccccc21` [Compound 25, 2-(2-Cyclohexylethyl)-5-pentyl-2H-pyrazolo[4,3-c]quinolin-3(5H)-one], the inhibition constant (Ki) in data set [1] (setting [5]) was 0.008 ± 0.0004 µM. Besides, the Ki in data set [4] was > 3 µM. In data set [2], this compound displayed an EC50 of 0.0054 ± 0.0011 µM and a maximal response (Emax) of 141 ± 3%.
